The values below come from patent US20220193185A1, “COMBINATION OF SYNTHETIC PEPTIDES WITH AFFINITY TO THE TGF-ß RECEPTOR AND WITH AFFINITY TO THE IL-10 RECEPTOR, PHARMACEUTICAL COMPOSITION AND THEIR USE AS IMMUNOMODULATORS IN THE TREATMENT OF AUTOIMMUNE, INFLAMMATORY OR ALLERGIC DISEASES” (Universidade Federal de Uberlândia, priority 2019, published 2022).

Bridges are numbered along the chain shown (N, C = ends). Where no end group is shown, it is not given here.

Assay [1] deals with NFkB pathway. The assay is described as follows: NFkB expression in Jurkat-Dual reporter cells, luciferase (IL-10 mimetic peptides). In kind it is cell-based. The conditions noted are these: without activating molecules; 12, 24 and 48 hours; different concentrations. As for the experimental part:
(§1) In order to investigate the ability of synthetic peptides with affinity to the Interleukin-10 receptor to interfere in the NFkB, IFN and TLR4 pathways, reporter cell lines were used. To analyze whether the isolated peptides (without activation molecules) could induce any type of activation, the isolated peptides were tested in cell lines during 12, 24 and 48 hours of treatment. […] As an example, FIG. 13A, FIG. 13B, and FIG. 13C show an analysis of NFkB expression after stimulation with the synthesized IL-10 receptor affinity synthetic peptides described herein. Cells were treated for 12, 24 and 48 hours with the synthesized peptides Pep 1-IL10, Pep 2-IL10, Pep 3-IL10 and Pep 4-IL10, at different concentrations, without activating molecules. Luciferase was then measured after 12 hours of treatment (FIG. 13A), 24 hours of treatment (FIG. 13B) and 48 hours of treatment (FIG. 13C). […] TNF-α (200 ng/mL) was used as a positive control.
The assay was then carried out using TNF-α as activation molecule not only in the control, but after a pretreatment with the synthesized peptides Pep 1-IL10, Pep 2-IL10, Pep 3-IL10 and Pep 4-IL10, at different concentrations. All peptides were able to modulate NFKB activation after 12, 24 and 48 hours, with different results depending on the concentrations used. […] In the assays shown by FIGS. 14 A, B and C, analysis of NFkB expression was performed in Jurkat-Dual reporter cells. Cells were treated for 1 hour with peptides and TNF-α (200 ng/ml) added. Luciferase was measured after 12 hours of treatment (FIG. 14A), 24 hours of treatment (FIG. 14B) and 48 hours of treatment (FIG. 14C).
Another assay was then performed in which cells were pretreated with TNF-α and the synthesized peptides Pep 1-IL10, Pep 2-IL10, Pep 3-IL10 and Pep 4-IL10, at different concentrations, were added later. All peptides were able to modulate NFKB activation after 12, 24 and 48 hours, with different results depending on the concentrations used. The most significant results will be described below. […] After 48 hours of treatment, Pep 1-IL-10 at a concentration of 0.001 μM (P<0.05) was the one that obtained a result with the highest statistical significance in the decrease of NFKB signaling (FIG. 15C). In the assays shown by FIGS. 15 A, B and C, analysis of NFkB expression was performed in Jurkat-Dual reporter cells. Cells were treated for 1 hour with TNF-α (200 ng/ml) and peptides were added. Luciferase was measured after 12 hours of treatment (FIG. 15A), 24 hours of treatment (FIG. 15B) and 48 hours of treatment (FIG. 15C). TNF-α (200 ng/mL) was used as a positive control and rlL-10 (recombinant Interleukin-10) (0.4 ng/mL) as a negative control. *P<0.05; **P<0.005; ***P<0.0005.

Assay [2] deals with IFN signaling pathway. The assay is described as follows: IFN signaling pathway in Jurkat-Dual reporter cells, SEAP production. The format is cell-based. The conditions noted are these: after 12, 24 and 48 hours; results depend on concentration. As to the method:
as §1
The most significant results will be described below. […] When cells were pretreated with IFN, although peptides at some concentrations indicated results, they were not statistically sufficient. Therefore, we cannot confirm whether they were able to interfere with pathway activation (FIGS. 17 A, B and C) in an equal or better way than the negative control (rIL-10). In the assays shown by FIGS. 16 (A, B and C) and FIGS. 17 (A, B and C), analysis of IFN expression was performed in Jurkat-Dual reporter cells. In the assays shown by FIGS. 16 A, B and C, cells were treated for 1 hour with peptides with further addition of IFN-α (104 EU/ml). Secreted Embryonic Alkaline Phosphatase (SEAP) production was measured after 12 hours of treatment (FIG. 16A), 24 hours of treatment (FIG. 16 B) and 48 hours of treatment (FIG. 16 C). In the assays shown by FIGS. 17A, B and C, cells were treated for 1 hour with IFN-α (104 EU/ml) with further addition of the peptides. SEAP production was measured after (A) 12 hours of treatment (B), 24 hours of treatment and (C) 48 hours of treatment. IFN-α (104 EU/ml) was used as a positive control and rlL-10 (0.4 ng/ml) as a negative control. *P<0.05.

Assay [3] concerns TLR4 signaling pathway. Nature of the assay: TLR4 signaling pathway in HEK cells, SEAP production (IL-10 mimetic peptides). In kind it is cell-based. The conditions noted are these: cells pretreated with LPS 100 ng/ml, peptides added; 12 hours. As to the method: as §1
HEK cells were used to investigate the ability of the synthesized peptides Pep 1-IL10, Pep 2-IL10, Pep 3-IL10 and Pep 4-IL10 to modulate the activation of the TLR4 signaling pathway after 12 hours of treatment. […]
In the assay shown by FIG. 14A cells were treated 1 hour with peptides and LPS (100 ng/ml) was added. SEAP production was measured after 12 hours of treatment. […] SEAP production was measured after 12 hours of treatment. […]

Assay [4] has as its system TGF-β1 receptor on A549 cells. Nature of the assay: ELISA on cells of the A549 line using anti-TGF-β1 antibody. In kind it is binding, human. As to the method:
The peptides described in this patent application were selected using the Phage Display (PD) methodology. The selection was performed by evaluating the ability of said peptides to recognize the TGF-β1 receptor on A549 cells, using an ELISA assay. MaxiSorp 96-well microtiter plates were coated with 1×10^6 cells diluted in PBS and incubated overnight at 4° C. Cells were blocked with 3% PBS-BSA for 1 h at 37° C., washed once with PBS and incubated with […] of each TGF-β1 mimetic peptide or 5 ng/ml of recombinant TGF-β1 for 1 h at 37° C. After washing, the plate was incubated for 1 h at 37° C. with anti-TGF-β1 antibody. The plate was washed and incubated with HRP-labeled anti-human IgG antibody for 1 h at 37° C. After washing, TMB substrate solution was added to the plate; the reaction was stopped by adding the 2N H2SO4 solution and read at 492 nm in a microplate reader.
To investigate whether the synthesized peptides could bind to cell receptors, an ELISA assay was performed on cells of the A549 line using commercial anti-TGF-β1 antibody.
On the technique in general: In an ELISA, binding on a coated surface is turned into a signal by an enzyme label.

Assay [5] relates to mice sensitized by Phl p5. The assay is described as follows: murine sensitization model with recombinant Phl p5: antibody response. In kind it is in vivo. The text has this: We then tested the ability of the synthesized TGF-β1 mimetic peptides to modulate the in vivo immune response during allergic sensitization to Phl p 5. We selected as an example Pep 2-TGF-β1 to show the results. […] Therefore, Pep 2-TGF-β1 modulated Phl p5-specific antibody responses in mice.

Assay [6] deals with splenocytes of mice sensitized with Phl p 5. The assay is described as follows: ELISPOT of splenocytes stimulated with Phl p5. The format is in vivo. As for the experimental part: (§2) To determine the number of splenic cells producing IFN-g, IL-4 and IL-10 in all groups of mice, an ELISPOT assay was performed. […] To investigate the cytokine profile in supernatants from restimulated splenocytes, a Luminex Multiplex cytokine analysis kit was used. […] Furthermore, an increase in IL-10 levels was observed.

The test system is the same in assay [7]. The assay is described as follows: Luminex Multiplex cytokine analysis of supernatants from restimulated splenocytes. The format is in vivo. As to the method: as §2
Assay [8] deals with Treg cells. Nature of the assay: flow cytometry of CD4+CD25+Foxp3+ cells in splenocytes from BALB/c mice. In kind it is in vivo. The text has this: To investigate the influence of synthesized peptides mimetic to TGF-β1 on Treg induction specific to Phl p5 during allergic sensitization, we analyzed splenocytes from BALB/c mice using flow cytometry. We sought to investigate CD4+CD25+Foxp3+cells expressing GATA3, CTLA4 or KI67, as these factors are necessary for the survival and function of Treg cells. […] The percentage of CD4+CD25+Foxp3+T cells expressing the CTLA4 factor in mice without sensitization and sensitized with Phl p 5 was 5.62% and 9.46%, respectively, while in mice treated with Pep 2-TGF-β1 this value was 12.5% (FIG. 10C-D).

Assay [9] has as its system TH2 polarization in skin-draining inguinal lymph node cells. The assay is described as follows: TH2 polarization in IL-4 reporter (4get) mice, GFP+CD4+ lymphocytes by flow cytometry. The format is in vivo. The conditions noted are these: 5 days after immunization, administered with grass pollen extract. The text has this:
TH2 lymphocytes produce cytokines such as IL-4, IL-5 and IL-13 and lead to the class shift of immunoglobulin production from B cells to IgE, which triggers the allergic reaction. To investigate whether synthesized peptides mimetic to TGF-β1 can modulate TH2 polarization in the presence of grass pollen extract or rPhl p 5, we used an IL-4 reporter mouse. 4get mice express GFP as part of a bicistronic IL-4-IRES-GFP mRNA, allowing the identification of cells expressing IL-4 in situ during an allergen-induced TH2 response. In this experiment, we use skin-draining inguinal lymph node cells to monitor the TH2 response. […] In summary, in this IL-4 mice model, Pep 2 administered in combination with grass pollen extract was able to inhibit TH2 polarization in skin-draining inguinal lymph node cells.
(A flow cytometer gives signals particle by particle.)

Take “Pep 2-IL-10: synthetic peptide with affinity to the Interleukin-10 receptor, SEQ ID NO: 10, without disulfide bridge (HASSAVIKSSSGGGS)”: in [1], the “induction of NFkB expression by peptides alone” value was “not able to induce any response”. Besides, the “modulation of the activation of the IFN signaling pathway” value in assay [2] was “able to modulate the activation of the IFN signaling pathway”. In assay [3], the “concentrations that significantly reduced TLR4 pathway activation” value was 100 μM (P<0.05), 1 μM (P<0.005), 0.5 μM (P<0.05), 0.1 μM (P<0.05), 0.05 μM (P<0.05) and 0.01 μM.
Take “Pep 2-TGF-β1: synthetic peptide with affinity to the TGF-β receptor, SEQ ID N 02, with disulfide bridges (HACESPLKRQCGGGS; disulfide 3-11)”: the “recognition of receptor-bound peptide by anti-TGF-β1 antibody compared to recombinant TGF-β1” value in [4] is “in the same way that the antibody recognized the TGF-β1 recombinant molecule”. In addition, the “degranulation of RBL cells sensitized with sera from treated mice vs Phl p 5 immunized group” value in [5] (1 μM, intradermal immunization with Phl p5) was “significantly lower levels of degranulation”. In assay [5] (mice sensitized by Phl p5), the “serum IgA levels (ELISA)” value is “increased levels of IgA”, the “serum IgE levels (ELISA)” value is recorded as “suppressed” and the “serum IgG1 levels (ELISA)” value is “suppressed”. Besides, in assay [5] (mice sensitized by Phl p5, not statistically significant), the “serum IgG2a levels (ELISA)” value was “suppressed”. Moreover, in assay [6], the “IFN-g secreted by splenocytes (ELISPOT) vs untreated mice” value was “significantly lower”, the “IL-4 secreted by splenocytes (ELISPOT) vs untreated mice” value is listed as “significantly lower” and the “IL-10 levels of splenocytes (ELISPOT) vs untreated mice” value is given as “significantly higher”. Further, in [7], the “IFN-g secretion in splenocyte supernatant vs untreated mice” value is recorded as “significantly lower”, the “IL-2 secretion in splenocyte supernatant vs untreated mice” value was “significantly lower”, the “IL-4 secretion in splenocyte supernatant vs untreated mice” value is on record as “significantly lower” and the “IL-5 secretion in splenocyte supernatant vs untreated mice” value is on record as “significantly lower”. Further, in [7], the “IL-10 secretion in splenocyte supernatant vs untreated mice” value is “higher” and the “IL-13 secretion in splenocyte supernatant vs untreated mice” value is reported as “significantly lower”. Also, in assay [8] (mice sensitized with Phl p5 and treated, control 16.1%, sensitized 16.2%), the “Treg cells expressing the factor GATA3 (of total T cells)” value was determined as 43.9%. Further, the “percentage of CD4+CD25+Foxp3+T cells expressing the CTLA4 factor” value in assay [8] (mice sensitized with Phl p5 and treated, no sensitization 5.62%, sensitized 9.46%) came to 12.5%. For the same substance, in assay [8] (vs Phl p5-sensitized mice, not significantly different), the “percentage of CD4+CD25+Foxp3+cells expressing factor KI67” value is recorded as “enriched”. The “TH2 polarization (GFP+CD4+ lymphocytes)” value in assay [9] was “suppressed TH2 polarization”.
